# In patent US9995734B2, “Human T cell line assay for evaluating the immunologic identity of glatiramer acetate preparations” (Mylan Inc., priority 2013, dated 2018):
# Test system: Donor 4 COP T-Cell Lines
# Assay: ATP proliferation assay (CellTiter Glo), Donor 4 COP T-cell lines, incl. reactivity to non-canonical GA peptides
# Type: cell-based, human
# Conditions: for Mean, ATP proliferation assay: Cell Line 205-1F4, Day 58; for Mean RLU: T-Cell Line 205-1H11, Day 59, 4 days incubation
substance,measurement,setting,value
glatiramer acetate [COP],"Mean, ATP proliferation assay",30 μg/mL,31323
same,"Mean, ATP proliferation assay",100 μg/mL,31188
same,Mean RLU,1 μg/mL COP,12243 RLU
same,Mean RLU,10 μg/mL COP,147464 RLU
same,Mean RLU,30 μg/mL COP,112673 RLU
same,"Reactivity (proliferation), Mean","T-cell line 205-1B4, 1 μg/mL antigen, No Antigen 830",1522 RLU
same,"Reactivity (proliferation), Mean","T-cell line 205-1B4, 3 μg/mL antigen, No Antigen 830",5501 RLU
same,"Reactivity (proliferation), Mean","T-cell line 205-1B4, 10 μg/mL antigen, No Antigen 830",11273 RLU
same,"COP 10 μg/mL, ATP proliferation assay","T-cell line 205-1B4, Day 13",84937 RLU
same,"COP 10 μg/mL, ATP proliferation assay","T-cell line 205-1B7, Day 13",74147 RLU
same,"Reactivity (proliferation), Mean","T-cell line 205-1C4, 1 μg/mL antigen, No Antigen 4464",8859 RLU
same,"Reactivity (proliferation), Mean","T-cell line 205-1C4, 3 μg/mL antigen, No Antigen 4464",26612 RLU
same,"Reactivity (proliferation), Mean","T-cell line 205-1C4, 10 μg/mL antigen, No Antigen 4464",41287 RLU
same,"COP 10 μg/mL, ATP proliferation assay","T-cell line 205-1C4, Day 13",69861 RLU
same,"COP 10 μg/mL, ATP proliferation assay","T-cell line 205-1D1, Day 13",63419 RLU
same,"COP 10 μg/mL, ATP proliferation assay","T-cell line 205-1E1, Day 13",44198 RLU
same,"COP 10 μg/mL, ATP proliferation assay","T-cell line 205-1F2, Day 13",71947 RLU
same,"COP 10 μg/mL, ATP proliferation assay","T-cell line 205-1F4, Day 13",33143 RLU
same,"Proliferation (luminescent ATP assay), Mean","T-cell line 205-1F4, Day 71, 1 μg/mL antigen, autologous B-LCL",47254
same,"Proliferation (luminescent ATP assay), Mean","T-cell line 205-1F4, Day 71, 3 μg/mL antigen, autologous B-LCL",169021
same,"Proliferation (luminescent ATP assay), Mean","T-cell line 205-1F4, Day 71, 10 μg/mL antigen, autologous B-LCL",213196
same,"COP 10 μg/mL, ATP proliferation assay","T-cell line 205-1G3, Day 13",54211 RLU
same,"COP 10 μg/mL, ATP proliferation assay","T-cell line 205-1H1, Day 13",29824 RLU
same,"Reactivity (proliferation), Mean","T-cell line 205-1H3, 1 μg/mL antigen, 0 μg/mL 4121.0",32122.0
same,"Reactivity (proliferation), Mean","T-cell line 205-1H3, 3 μg/mL antigen, 0 μg/mL 4121.0",49585.0
same,"Reactivity (proliferation), Mean","T-cell line 205-1H3, 10 μg/mL antigen, 0 μg/mL 4121.0",60878.3
same,"COP 10 μg/mL, ATP proliferation assay","T-cell line 205-1H3, Day 13",55518 RLU
same,"COP 10 μg/mL, ATP proliferation assay","T-cell line 205-1H4, Day 13",50307 RLU
same,"Reactivity (proliferation), Mean","T-cell line 205-1H5, 1 μg/mL antigen, No Antigen 749",2375 RLU
same,"Reactivity (proliferation), Mean","T-cell line 205-1H5, 3 μg/mL antigen, No Antigen 749",7182 RLU
same,"Reactivity (proliferation), Mean","T-cell line 205-1H5, 10 μg/mL antigen, No Antigen 749",8580 RLU
same,"COP 10 μg/mL, ATP proliferation assay","T-cell line 205-1H5, Day 13",57608 RLU
same,"Proliferation (luminescent ATP assay), Mean","T-cell line 205-1H7, 1μg/mL antigen, after seven stimulations, 0 μg/mL 3382",13131 RLU
same,"Proliferation (luminescent ATP assay), Mean","T-cell line 205-1H7, 10 μg/mL antigen, after seven stimulations, 0 μg/mL 3382",175652 RLU
same,"Proliferation (luminescent ATP assay), Mean","T-cell line 205-1H7, 30 μg/mL antigen, after seven stimulations, 0 μg/mL 3382",190750 RLU
same,"COP 10 μg/mL, ATP proliferation assay","T-cell line 205-1H7, Day 13",64436 RLU
same,"COP 10 μg/mL, ATP proliferation assay","T-cell line 205-1H9, Day 13",52972 RLU
same,"Reactivity (proliferation), Mean","T-cell line 205-1H11, 1 μg/mL antigen, 0 μg/mL 6941",12243 RLU
same,"Reactivity (proliferation), Mean","T-cell line 205-1H11, 10 μg/mL antigen, 0 μg/mL 6941",147464 RLU
same,"Reactivity (proliferation), Mean","T-cell line 205-1H11, 30 μg/mL antigen, 0 μg/mL 6941",112673 RLU
same,"COP 10 μg/mL, ATP proliferation assay","T-cell line 205-1H11, Day 13",54232 RLU
same,ATP ratio (COP stimulated:unstimulated control),"fifteen Donor 4 wells, Day 13, 10 μg/mL (Table 26)",two or greater
